# Assay results reported in patent US6479283B1, “Stimulation, culture and preservation of pancreatic cells” (Ascendia AB, priority 1997, dated 2002).
# Tests used:
# [1] = system: naked mice with induced diabetes; test: Transplantation of cultured ICC in naked mice with alloxan-induced diabetes; type: in vivo; details: second series, 1×3 μl ICC; 1 mM DG added to HPMC culture medium
# From the text: Transplantation in Naked Mice with Induced Diabetes
# Diabetes was induced in naked mice by injection of alloxan (Dunn, J S, and McLetchie, Lancet 2 (1943) 384; Boquist L, Acta Pathol. Microbiol. Scand., Sect. A, 88 (1980) 201) resulting in […] within a few days indicated by blood glucose levels >25 mm. After about one week intact ICCs from other mice of this strain were transplanted to the […] anaesthetized animals. An incision was made in the abdominal wall and the left kidney was mobilized. A small hole was made in the kidney's thin […] capsule and a pipette containing ICC was carefully inserted therethrough under the capsule. The ICCs were deposited within the capsule, the pipette withdrawn and the abdominal wall and skin sutured.
# In a first series of experiments an ICC standard dose of 2×3 μl corresponding to 600 ICC was injected. Three types of ICCs were compared:
# (1) control, i.e. ICC islets cultured in medium RPMI 1640+10 mm nicotine amide+10% human serum (HS);
# (2) ICC islets cultured in medium RPMI 1640+10 mm nicotine amide+10% human serum (HS)+9% of 1.5% HPMC in saline; […]
# Numbers in square brackets indicate number of animals. […] Blood glucose was determined on day 7 and in weekly intervals thereafter. The arrow indicates nephrectomy, i.e., the kidney with ICC transplant was removed and blood glucose was determined one week thereafter. […]
# [2] = system: fibroblast growth in ICC cultures; test: Fibroblast growth in ICC cultures; type: cell-based, porcine; details: 1 mM DG
# From the text: (§1) (3) ICC islets cultured in medium RPMI 1640+10 mm nicotine amide+10% human serum (HS)+9% of 1.5% HPMC in saline+1 mm 2-deoxyglucose (DG).
# [3] = system: fetal porcine ICCs; test: Differentiation of fetal porcine ICCs (glucose stimulated release of insulin), separate experiments; type: cell-based
# From the text: as §1
structure (smiles),measurement,setting,value
"O=CC[C@@H](O)[C@H](O)[C@H](O)CO [DG, 2-deoxyglucose]",Effect of DG on the reduction of blood glucose levels,[1],clearly beneficial effect on the reduction of blood glucose levels
same,Fibroblast growth,[2],reduces fibroblast growth
same,Differentiation giving rise to glucose stimulated release of insulin,[3],does not affect the differentiation
